How the values were obtained:
[1] = test system: Streptococcus mutans; test: Substrate activity at 6xHis-tagged Streptococcus mutans UdpK expressed in Escherichia coli BL-21(DE3) assessed as measuring ADP level in presence of ATP/NADH by PK/LDH coupled assay
[2] = test system: Streptococcus mutans; test: Substrate activity at wild-type Streptococcus mutans UdpK expressed in Escherichia coli C43(DE3) in presence of ATP/NADH by PK/LDH coupled assay

CC(C)=CCC/C(C)=C/CC/C(C)=C/CC/C(C)=C/CC/C(C)=C\CC/C(C)=C\CC/C(C)=C\CC/C(C)=C\CC/C(C)=C\CC/C(C)=C\CO
Activity [1]: 3.8 µmol/mg/min

C/C(=C/CO)CC/C=C(/C)CC/C=C(/C)CC/C=C(/C)CC/C=C(/C)CC/C=C(/C)CC/C=C(/C)CC/C=C(\C)CC/C=C(\C)CC/C=C(\C)CCCNc1cc2ccc3cccc4ccc(c1)c2c34
Activity [2]: 6.2 µmol/mg/min

C#CCNCCC/C(C)=C/CC/C(C)=C/CC/C(C)=C/CC/C(C)=C\CC/C(C)=C\CC/C(C)=C\CC/C(C)=C\CC/C(C)=C\CC/C(C)=C\CC/C(C)=C\CO
Activity [2]: 7.1 µmol/mg/min

CC(C)=CCC/C(C)=C/CO
Activity [1]: 6.2 µmol/mg/min

CC(C)=CCC/C(C)=C/CC/C(C)=C/CC/C(C)=C\CC/C(C)=C\CC/C(C)=C\CC/C(C)=C\CO
Activity [1]: 8.8 µmol/mg/min

C/C(=C\CO)CCCC(C)CCCC(C)CCCC(C)C (stereo unspecified)
Activity [1]: 5.6 µmol/mg/min

C/C(=C\CO)CC/C=C(\C)CC/C=C(\C)CC/C=C(\C)CC/C=C(\C)CNS(=O)(=O)c1ccc(N=Nc2ccc(N(C)C)cc2)cc1
Activity [1]: 3.3 µmol/mg/min

C/C(=C/CO)CC/C=C(/C)CC/C=C(/C)CC/C=C(/C)CC/C=C(/C)CC/C=C(/C)CC/C=C(/C)CC/C=C(\C)CC/C=C(\C)CC/C=C(\C)CCCNc1ccc(N=[N+]=[N-])cc1
Activity [2]: 9.4 µmol/mg/min

C/C(=C/CO)CC/C=C(\C)CC/C=C(\C)CC/C=C(\C)CC/C=C(\C)CNS(=O)(=O)c1ccc(N=Nc2ccc(N(C)C)cc2)cc1
Activity [1]: 5.9 µmol/mg/min

CC(C)=CCC/C(C)=C/CC/C(C)=C\CO
Activity [1]: 5.4 µmol/mg/min

C/C(=C/CO)CC/C=C(/C)CC/C=C(\C)CC/C=C(\C)CC/C=C(\C)CNS(=O)(=O)c1ccc(N=Nc2ccc(N(C)C)cc2)cc1
Activity [1]: 4 µmol/mg/min

CC(C)=CCC/C(C)=C/CC/C(C)=C/CC/C(C)=C\CC/C(C)=C\CC/C(C)=C\CC/C(C)=C\CC/C(C)=C\CO
Activity [1]: 3.8 µmol/mg/min

CC(C)=CCC/C(C)=C\CC/C(C)=C\CO
Activity [1]: 21.2 µmol/mg/min

C/C(=C/CO)CC/C=C(/C)CC/C=C(/C)CC/C=C(/C)CC/C=C(/C)CC/C=C(/C)CC/C=C(/C)CC/C=C(\C)CC/C=C(\C)CC/C=C(\C)CCCNc1ccc([N+](=O)[O-])cc1
Activity [2]: 9 µmol/mg/min

CC(=O)SCCC/C(C)=C/CC/C(C)=C/CC/C(C)=C/CC/C(C)=C\CC/C(C)=C\CC/C(C)=C\CC/C(C)=C\CC/C(C)=C\CC/C(C)=C\CC/C(C)=C\CO
Activity [2]: 11.8 µmol/mg/min

C/C(=C/CO)CC/C=C(/C)CC/C=C(/C)CC/C=C(/C)CC/C=C(/C)CC/C=C(/C)CC/C=C(/C)CC/C=C(\C)CC/C=C(\C)CC/C=C(\C)CCCNC1CC(C)(C)N([O])C(C)(C)C1
Activity [2]: 5.1 µmol/mg/min

C#Cc1cccc(NCCC/C(C)=C/CC/C(C)=C/CC/C(C)=C/CC/C(C)=C\CC/C(C)=C\CC/C(C)=C\CC/C(C)=C\CC/C(C)=C\CC/C(C)=C\CC/C(C)=C\CO)c1
Activity [2]: 9 µmol/mg/min

CC(C)=CCC/C(C)=C/CC/C(C)=C/CC/C(C)=C/CO
Activity [1]: 9.3 µmol/mg/min

CC(C)=CCC/C(C)=C/CC/C(C)=C/CC/C(C)=C\CC/C(C)=C\CC/C(C)=C\CC/C(C)=C\CC/C(C)=C\CC/C(C)=C\CC/C(C)=C\CC/C(C)=C\CC/C(C)=C\CCC(C)CCO (stereo unspecified)
Activity [1]: 4.5 µmol/mg/min

C/C(=C/CO)CC/C=C(/C)CC/C=C(/C)CC/C=C(/C)CC/C=C(/C)CC/C=C(/C)CC/C=C(/C)CC/C=C(\C)CC/C=C(\C)CC/C=C(\C)CCCN=[N+]=[N-]
Activity [2]: 10.8 µmol/mg/min

C/C(=C/CO)CC/C=C(/C)CC/C=C(/C)CC/C=C(/C)CC/C=C(/C)CC/C=C(/C)CC/C=C(/C)CC/C=C(\C)CC/C=C(\C)CC/C=C(\C)CCC1OC1(C)C (stereo unspecified)
Activity [2]: 8.1 µmol/mg/min

C/C(=C/CO)CC/C=C(/C)CC/C=C(/C)CC/C=C(/C)CC/C=C(/C)CC/C=C(/C)CC/C=C(/C)CC/C=C(\C)CC/C=C(\C)CC/C=C(\C)CCCNc1ccccc1C(N)=O
Activity [2]: 6.9 µmol/mg/min

CC(C)=CCC/C(C)=C/CC/C(C)=C/CO
Activity [1]: 11.5 µmol/mg/min

C/C(=C/CC/C(C)=C\CC/C(C)=C\CC/C(C)=C\COC1CCCCO1)CC/C=C(/C)CC/C=C(/C)CC/C=C(/C)CC/C=C(\C)CC/C=C(\C)CC/C=C(\C)CCCO (stereo unspecified)
Activity [2]: 3.4 µmol/mg/min

CCCCCCCCCCCCCCCCCCCCO
Activity [1]: 1.3 µmol/mg/min

CC(C)=CCC/C(C)=C/CC/C(C)=C/CC/C(C)=C/CC/C(C)=C\CC/C(C)=C\CC/C(C)=C\CC/C(C)=C\CC/C(C)=C\CC/C(C)=C\CC/C(C)=C\CO
Activity ([2]; tested as the 2H-labelled form): 9.4 µmol/mg/min

CCCCCCCCCCCO
Activity [1]: 2.1 µmol/mg/min

C/C(=C/CO)CC/C=C(/C)CC/C=C(/C)CC/C=C(\C)CC/C=C(\C)CNS(=O)(=O)c1ccc(N=Nc2ccc(N(C)C)cc2)cc1
Activity [1]: 4.1 µmol/mg/min

CCCCCCCCCCCCCCCCO
Activity [1]: 1.9 µmol/mg/min

C/C(=C/CO)CC/C=C(/C)CC/C=C(/C)CC/C=C(/C)CC/C=C(/C)CC/C=C(/C)CC/C=C(/C)CC/C=C(\C)CC/C=C(\C)CC/C=C(\C)CCCNCc1ccc(C2(C(F)(F)F)N=N2)cc1
Activity [2]: 5.1 µmol/mg/min

CC(C)=CCC/C(C)=C/CC/C(C)=C/CC/C(C)=C/CC/C(C)=C/CC/C(C)=C/CC/C(C)=C/CC/C(C)=C/CC/C(C)=C/CO
Activity [1]: 4.9 µmol/mg/min

— ChEMBL document CHEMBL5104096, “Undecaprenol kinase: Function, mechanism and substrate specificity of a potential antibiotic target” (Eur J Med Chem, 2021)
